Patent US11026443B2, “Use of sedoheptulose as a nutritional supplement” (C7 SUGAR GMBH, priority 2013, dated 2021)

Tests used:
[1] = Diet-derived sedoheptulose uptake in humans (serum GC-MS before/after carrot meal); assay type: in vivo, human; details: two hours after meal of mainly steamed carrots (~700 g) vs overnight fasted, n=4
Source text: Fresh carrots with an Austrian “organic-certificate” were sliced into small pieces and snap-frozen in liquid nitrogen. The same procedure was applied to leaves freshly harvested from indoor-grown Sedum Spectabile plants. Three samples of each tissue were pooled and homogenized to powder by glass-beads. The carbohydrate rich fractions of the samples were isolated by 20% H2O and 80% MeOH extraction solution spiked with 13C standards and processed for standard gas-chromatography coupled to mass spectrometry (GC-MS). Glucose and sedoheptulose were identified by their individual masses and their relative amount was derived from the peak area of each individual analyte normalized to 13C content. Glucose and sedoheptulose were also measured in equal volumes of serum from overnight fasted or carrot fed individuals. The carrots were steamed and some olive-oil, salt and pepper were used for flavour. Two hours before and two hours after the carrot containing meal human serum was prepared in VACUETTE® Z Serum Sep tubes from blood. Serum samples were processed as previously described and also analyzed by GC-MS as detailed above and in Ruiz-Matute A I et al., Chromatogr B Analyt Technol Biomed Life Sci. (2011) May 15 879(17-18).

primary human adipocytes [2] = experiment: mRNA expression (RT-PCR) in primary human adipocytes differentiated in GF or GFS media; assay type: cell-based; details: GFS (1 g/L each sugar) vs GF (1.5 g/L each), eight days differentiation
Method: Stromal vascular fraction cells (SVFs) from subcutaneous white adipose tissue of a patient undergoing abdominal surgery were isolated as described before (Lindroos et al, Cell Metab. (2013), Jul. 2; 18(1):62-74.). Briefly, adipose tissue was digested with Collagenase II (Worthington) and filtered. SVFs were separated from mature adipocytes by centrifugation, followed by the lysis of erythrocytes in the SVF-fraction (Buffer EL, Qiagen). The purified SVFs were cultured in DMEM/F12, 10% FBS (Gibco, Life Technologies). […] Two days after confluence (day 0), differentiation was induced by adding 1 μM dexamethasone, 1.74 μM insulin, 5 μM troglitazone, […], 17 μM pantothenic acid and 33 μM biotin. After two days, IBMX and dexamethasone were omitted, while insulin and troglitazone were removed on day 4. 50% of the medium was replaced on day 6. Two days later, the cells were harvested for RNA isolation (RNeasy mini kit, Qiagen). Briefly, total RNA was extracted and reverse-transcribed using commercial kits (QIAGEN, Applied Biosystems). Quantitative real-time PCRs were performed on an […] real-time cycler using iTaq SYBR Green Supermix with ROX (BioRad) to measure CARKL, adiponectin, UCP-1, TNFa, IL-6, MCP-1, and beta-actin expression as previously described ([…] et al., Cell Metab. 15 (2012), 813-826). […] Relative expression of target gene was calculated by the delta-delta CT method.

primary human adipocytes [3] = experiment: Oxygen consumption rate and extracellular acidification rate (XF-Analyzer) in primary human adipocytes; assay type: cell-based; details: human adipocytes differentiated and cultured in sedoheptulose containing media vs controls
Method: Stromal vascular fraction cells (SVFs) from subcutaneous white adipose tissue of a patient undergoing abdominal surgery were isolated as described before (Lindroos et al, Cell Metab. (2013), Jul. 2; 18(1):62-74.). Briefly, adipose tissue was digested with Collagenase II (Worthington) and filtered. SVFs were separated from mature adipocytes by centrifugation, followed by the lysis of erythrocytes in the SVF-fraction (Buffer EL, Qiagen). The purified SVFs were cultured in DMEM/F12, 10% FBS (Gibco, Life Technologies). As soon as the cells reached confluence, they were washed with DMEM/F12 w/o glucose (Biowest) and the medium was replaced by DMEM/F12 with a total carbohydrate load of 3 g/L, containing 1.5 g/L glucose and fructose or 1 g/L each of glucose, fructose, and sedoheptulose, respectively. […]
(§1) The XF-Analyzer (Seahorse Bio.) was used to measure changes in cellular metabolism induced by different carbohydrates. Extracellular acidification rates (ECAR, mpH/min) and oxygen consumption rates (OCR, pmoles/min) were recorded in primary human adipocytes and primary murine hepatocytes according to the manufacture instructions. […] Changes induced by the different carbohydrate sources were expressed as relative change in % to illustrate the effect of each carbon source.

mature murine adipocytes = experiment: Cytokine mRNA expression in mature murine adipocytes (ceiling culture) in GF or GFS media; assay type: cell-based, mouse; details: three days in sedoheptulose containing media vs glucose and fructose alone
Method: Anterior and posterior subcutaneous adipose tissue and epididymal white adipose tissue was isolated from transgenic CARKL-mice and wild-type littermate controls. Adipose tissue was digested as described above for the human sample. After centrifugation, the layer of floating mature adipocytes was removed and re-centrifuged at 100 rcf for 10 minutes. 150 μL of packed adipocytes were cultured under a floating coverslip in six-well plates, in DMEM/F12, 15% calf serum (PAA). 24 hours after isolation, the wells were washed twice with PBS and the medium was exchanged to DMEM/F12 with a total carbohydrate load of 3 g/L, containing 1.5 g/L glucose and fructose, or 1 g/L each of glucose, fructose and sedoheptulose, respectively. Three days later, the cells were harvested for RNA isolation using TRIreagent (Sigma).
(§2) Briefly, total RNA was extracted and reverse-transcribed using commercial kits (QIAGEN, Applied Biosystems). Quantitative real-time PCRs were performed on an AbiPRISM 7900HT real-time cycler using iTaq SYBR Green Supermix with ROX (BioRad) to measure CARKL, adiponectin, UCP-1, TNFa, IL-6, MCP-1, and beta-actin expression as previously described (Haschemi et al., Cell Metab. 15 (2012), 813-826). Expression of target gene was normalized to beta-actin expression. Relative expression of target gene was calculated by the delta-delta CT method.

[4] = test system: primary murine hepatocytes; experiment: IL-6 mRNA expression in primary murine hepatocytes in GF or GFS media; assay type: cell-based, mouse; details: hepatocytes pre-cultured two days with sedoheptulose (GFS) vs GF
Method: (§3) Hepatocytes were isolated from male wild-type and CARKL overexpressing mice after the mice were sacrificed by hepatic in situ collagenase perfusion. After perfusion, the liver was quickly removed, minced, and filtered through a cell strainer (Fisher Scientific, Inc) into a 50 ml sterile tube. Hepatocytes in the resulting filtrate were purified from the nonparenchymal cells by centrifugation steps. The isolated hepatocytes were seeded into plates at a concentration of 0.25×10^6/ml in respective DMEM-media containing 10% FBS and indicated carbohydrate mixes at 3 g/L (glucose and fructose (GF), or glucose, fructose and sedoheptulose (GFS)) at least two days before experiments were performed.
as §2

[5] = test system: primary bone marrow derived macrophages; experiment: Basal cytokine mRNA expression in primary bone marrow derived macrophages in GF or GFS media; assay type: cell-based, mouse; details: pre-cultured two days in GFS vs GF media
Method: (§4) Mouse bones were isolated from male wild-type and CARKL overexpressing mice and bone marrow wash flushed, washed and cleared from red blood cells by lysis, and subsequently differentiated in DMEM containing 25 mM glucose and 20 ng/ml M-CSF. After 4 days, cells for osteoclast differentiation were harvested and seeded in corning osteo assay plates with differentiation media (see below), and for primary bone marrow derived macrophages (BMDM) the medium was renewed and further supplemented with M-SCF for two days. Differentiated BMDM were then seeded in respective DMEM-media containing 10% FBS and indicated carbohydrate mixes at 3 g/L (glucose and fructose (GF), or glucose, fructose and sedoheptulose (GFS)) at least two days before experiments were performed.
as §2

[6] = test system: bone marrow derived macrophages; experiment: Cytokine secretion (ELISA) by bone marrow derived macrophages, basal and LPS-induced; assay type: cell-based, mouse; details: ELISA of supernatant over two days, GFS vs GF media
Method: as §4

[7] = test system: sedoheptulose kinase (CARKL); experiment: Sedoheptulose kinase assay (ADP Quest, ADP formation); assay type: biochemical; details: constant amount of recombinant CARKL, constant ATP 150 μM, increased doses of sedoheptulose
Source text: The ADP Quest Assay (DiscoveRx) was used to indirectly measure […] formation by ADP accumulation over time according to the manufacture instructions. Recombinant sedoheptulose kinase was previously produced in E. coli and purified by affinity purification ([…] et al., Cell Metab. 15 (2012), 813-826).

WT hepatocytes = experiment: Glucose-induced ECAR in primary hepatocytes; assay type: cell-based, mouse; details: WT hepatocytes in GFS vs GF media, 1 hr carbohydrate starvation, then glucose 1 g/L
Method: as §3
as §1, with “instructions. Briefly, cells were seeded in seahorse cell plates at a density of 10^4 cells per well for adipocytes and 0.5×10^5 cells per well for hepatocytes.” for “instructions.”

[8] = target: T1, Glucose-6-phosphate dehydrogenase (G6PD) (Mus musculus, UniProt Q00612); experiment: Glucose-6-phosphate dehydrogenase activity assay (enzyme histochemistry) in hepatocytes; assay type: cell-based; details: WT cells incubated in cell culture media with sedoheptulose; data not shown
T1 construct: Hepatocytes were isolated from male wild-type and CARKL overexpressing mice; endogenous in cells; host or cells: primary mouse hepatocytes (WT and CARKL-transgenic)
T1 sequence (Q00612 whole entry): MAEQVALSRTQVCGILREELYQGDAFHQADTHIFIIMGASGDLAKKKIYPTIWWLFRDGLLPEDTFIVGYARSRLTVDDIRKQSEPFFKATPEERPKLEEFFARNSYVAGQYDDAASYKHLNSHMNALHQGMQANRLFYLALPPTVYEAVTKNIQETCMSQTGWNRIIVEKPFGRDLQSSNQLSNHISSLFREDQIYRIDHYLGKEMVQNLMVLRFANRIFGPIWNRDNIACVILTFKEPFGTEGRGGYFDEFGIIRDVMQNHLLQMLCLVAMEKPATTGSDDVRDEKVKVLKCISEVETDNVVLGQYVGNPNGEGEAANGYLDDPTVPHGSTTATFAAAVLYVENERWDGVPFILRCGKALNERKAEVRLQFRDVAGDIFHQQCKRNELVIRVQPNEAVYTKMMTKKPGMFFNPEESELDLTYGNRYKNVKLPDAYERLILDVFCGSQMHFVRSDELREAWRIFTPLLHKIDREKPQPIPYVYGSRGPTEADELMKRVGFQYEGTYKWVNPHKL
Method: as §3
Cells were grown on polystyrene vessel tissue culture treated glass slides, snap frozen in liquid nitrogen and kept at −80° C. The enzyme histochemical procedure was based on the tetrazolium salt method as described by Van Noorden and Frederiks. […] The medium was freshly prepared immediately before incubation. Control reactions additionally contained 40 mM glucosamine-6-phosphate. Cells were incubated at room temperature for 15 minutes under continuous mixing by orbital shaker. After incubation, cells were washed 3×5 minutes in 60° C. phosphate buffered saline, dried, and mounted in glycerol gelatin, and photographed within one day at ×10 magnification.

osteoclasts = experiment: In vitro bone resorption assay (osteoclast pit formation); assay type: cell-based, mouse
Method: as §4, with “performed. Osteoclast precursor cells (bone marrow cells treated with 20 ng/ml M-CSF for 4 days) were plated in 24-well Corning Osteo Assay plate in the presence of 10 ng/ml M-CSF and 100 ng/ml RANKL in alpha-MEM medium containing 10% FBS and 3 g/L either glucose and fructose (GF), or glucose, fructose, and sedoheptulose (GFS). The Medium was renewed every third day. […] Each well was entirely photographed by TissueFax with an ×20 objective and all visible resorption pits were counted and analysed blinded.” for “performed.”

SMILES: O=C(CO)[C@@H](O)[C@H](O)[C@H](O)[C@H](O)CO [sedoheptulose, Sedoheptulose]
- increase in sedoheptulose serum levels [1]: approximately two-fold
- sedoheptulose kinase CARKL mRNA expression (primary human adipocytes [2]): increase
- cellular oxygen consumption rate (OCR) (primary human adipocytes [3]): increased
- extracellular acidification rate (ECAR) (primary human adipocytes [3]): comparable
- IL-6 mRNA (mature murine adipocytes): less
- TNFa mRNA (mature murine adipocytes): less
- IL-6 expression [4]: less
- basal IL-6 mRNA expression [5]: blocked
- basal TNFa mRNA expression [5]: blocked
- basal IL-6 secretion [6]: blocked
- basal TNFa secretion [6]: blocked
- sedoheptulose turnover rate (ADP formation) [7]: enhanced
- glucose-induced ECAR (WT hepatocytes): reduced
- G6PD activity distribution (re-localization of G6PD and reduced activity in the inner space of the cells, as in CARKL overexpressing cells) [8]: same phenotype was achieved
- pit formation by osteoclasts (osteoclasts; 7 days in GFS vs GF media, Corning Osteo Assay plates): reduced
- larger resorption-pits (osteoclasts; WT osteoclasts cultured in GF or GFS media): found only in the absence of sedoheptulose
